The results in this text go back to patent US8461349B2, “Fungicidal active substance combinations containing trifloxystrobin” (Bayer CropScience AG, priority 2001, dated 2013).

Format in all cases: in vivo
In experiment [1] the test system is green peach aphid (Myzus persicae). The experiment can be described thus: Myzus test (cabbage leaves dipped). As to the method: (§1) • Solvent: 7 parts by weight of dimethylformamide • Emulsifier: 2 parts by weight of alkylaryl polyglycol ether
(§2) To produce a suitable preparation of active compound, 1 part by weight of active compound is mixed with the stated amounts of solvent and emulsifier, and the concentrate is diluted with emulsifier-containing water to the desired concentration.
Cabbage leaves (Brassica oleracea) which are heavily infested by the green peach aphid (Myzus persicae) are treated by being dipped into the preparation of active compound of the desired concentration.
(§3) After the desired period of time, the kill in % is determined. 100% means that all aphids have been killed; 0% means that none of the aphids have been killed. The kill rates that have been determined are evaluated using Colby's formula.

The subject of experiment [2] is caterpillars of the army worm (Spodoptera frugiperda). The experiment can be described thus: Spodoptera frugiperda test (cabbage leaves dipped). On the procedure: as §1, §2
Cabbage leaves (Brassica oleracea) are treated by being dipped into the preparation of active compound of the desired concentration and are populated with caterpillars of the army worm (Spodoptera frugiperda) while the leaves are still moist.
(§4) After the desired period of time, the kill in % is determined. 100% means that all caterpillars have been killed; 0% means that none of the caterpillars have been killed. The kill rates that have been determined are evaluated using Colby's formula.

The subject of experiment [3] is caterpillars of the diamond back moth (Plutella xylostella, sensitive strain). Put plainly: Plutella test (cabbage leaves dipped). As to the method: as §1, §2
Cabbage leaves (Brassica oleracea) are treated by being dipped into the preparation of active compound of the desired concentration and are populated with caterpillars of the diamond back moth (Plutella xylostella, sensitive strain) while the leaves are still moist.
as §4

The subject of experiment [4] is larvae of the mustard beetle (Phaedon cochleariae). The experiment can be described thus: Phaedon larvae test (cabbage leaves dipped). On the procedure:
as §1, §2
Cabbage leaves (Brassica oleracea) are treated by being dipped into the preparation of active compound of the desired concentration and are populated with larvae of the mustard beetle (Phaedon cochleariae) while the leaves are still moist.
After the desired period of time, the kill in % is determined. 100% means that all beetle larvae have been killed; 0% means that none of the beetle larvae have been killed. The kill rates that have been determined are evaluated using Colby's formula.

The subject of experiment [5] is cotton aphid (Aphis gossypii). The experiment can be described thus: Aphis gossypii test (cotton leaves dipped). As to the method: as §1
To produce a suitable preparation of active compound, 1 part by weight of active compound is mixed with the stated amounts of solvent and emulsifier, and the concentrate is diluted with water to the desired concentrations.
Cotton leaves (Gossypium hirsutum) which are heavily infested by the cotton aphid (Aphis gossypii) are treated by being dipped into the preparation of active compound of the desired concentration.
as §3

SMILES strings stand for the structures. Several values for one entry are separate records, joined by “and”; a condition that tells them apart may be missing. Equal values may be shown once.

Take `C/C(=N\C#N)N(C)Cc1ccc(Cl)nc1` [acetamiprid (IV)]: the “Kill rate in % after 6^d” value in experiment [1] (0.16 ppm) worked out at 20%. Besides, the “Kill rate in % after 3^d” value is on record as 65% in experiment [2] (4 ppm), 0% in experiment [3] (4 ppm) and 5% in experiment [4] (4 ppm). Also, the “Kill rate in % after 1^d” value in experiment [5] (0.16 ppm) is 25%.

In the case of `CN/C(=N\[N+](=O)[O-])NCc1cnc(Cl)s1` [chlothianidin (VII)], the “Kill rate in % after 6^d” value in experiment [1] (0.8 ppm) was found to be 95%. Besides, the “Kill rate in % after 3^d” value in experiment [2] (4 ppm) is 85%; in experiment [4] (4 ppm) it was 30%.

For `CN/C(=N\[N+](=O)[O-])NCC1CCOC1` (stereo not shown) [dinotefuran (VIII)], the “Kill rate in % after 6^d” value in experiment [1] (4 ppm) amounted to 0%; in experiment [2] (4 ppm), 70%; in experiment [5] (0.8 ppm), 0%. Also, in experiment [4] (4 ppm), the “Kill rate in % after 3^d” value is recorded as 5%.

On to `O=[N+]([O-])/N=C1\NCCN1Cc1ccc(Cl)nc1` [imidacloprid (II), 1-[(6-chloro-3-pyridinyl)methyl]-N-nitro-2-imidazolidineimine], for which the “Kill rate in % after 6^d” value in experiment [1] (0.16 ppm) and in experiment [5] (0.16 ppm) was 25% each time. Moreover, the entries for the “Kill rate in % after 3^d” value in experiment [2] (4 ppm) and in experiment [4] (4 ppm) were 0% and 35%, respectively.

As for `N#C/N=C1\SCCN1Cc1ccc(Cl)nc1` [thiacloprid (III)], the “Kill rate in % after 6^d” value in experiment [1] (0.8 ppm) stood at 85%; in experiment [5] (0.8 ppm), 55%. Moreover, the “Kill rate in % after 3^d” value amounted to 0% in experiment [2] (4 ppm) and 10% in experiment [4] (4 ppm).

With `CON=C(C(=O)OC)c1ccccc1CO/N=C(\C)c1cccc(C(F)(F)F)c1` [trifloxystrobin (I), methyl 2-[α-{[(α-methyl-3-trifluoromethylbenzyl)imino]oxy}-o-tolyl]-glyoxylate O-methyl oxime], the “Kill rate in % after 6^d” value in experiment [1] (4 ppm) was found to be 0%; in experiment [1] (20 ppm), 0%; in experiment [1] (100 ppm), 10%; in experiment [2] (100 ppm) it was 0%; in experiment [5] (4 ppm), 0%; in experiment [5] (20 ppm), 0%. Besides, the “Kill rate in % after 3^d” value in experiment [2] (100 ppm) was 0% and 5%; in experiment [3] (100 ppm), 0%; in experiment [4] (100 ppm) it was 0% and 5%. Further, the “Kill rate in % after 1^d” value in experiment [5] (4 ppm) and in experiment [5] (20 ppm) was 0% throughout.
